Test system: p388 lymphocytic leukemia
Experiment: P388 Lymphocytic Leukemia Test
Type: in vivo, CDF₁ mice
Conditions: median survival time treated/control
Protocol: P388 Lymphocytic Leukemia Test
Female, CDF₁ mice (5-6 weeks old, weighing 17-20 g) were intraperitoneally transplanted with 1 × 10⁶ cells of p388 lymphocytic leukemia passaged on female, DBA/2 mice on day 0.
A suspension of the compound of formula (I) in 0.5% of gum arabic saline solution was administered intraperitoneally once a day, 5 times in all, from day l to day 5, or 2 times in all, day l and day 5. A solution of 5-fluorouracil in saline served as a reference drug, and was administered similarly. Control group were similarly administered with only 0.5% gum arabic saline solution.
Eight animals were used for the treated group with the compound of formula (I) and the reference drug, respectively, and 16 animals for control group.
The antitumor effect was evaluated according to the criterion of the National Cancer Institute of the United States (NCI). The survivors of each group were recorded for 30 days, and the value of T/C × 100 (%) was calculated from the median survival times for the treated animals (T) and the control animals (C). When the value is 125 or more, the drug is judged to be effective.

[1] = Dose 25.0 mg/kg intraperitoneally, administration day 1 - 5
[2] = Dose 50.0 mg/kg intraperitoneally, administration day 1 - 5

Which results are given for `O=c1[nH]cc(F)c(=O)[nH]1` [5-fluoro-uracil, 5-fluorouracil, reference compound]?
T/C x 100 (Dose 3.1 mg/kg intraperitoneally, administration day 1 - 5): 136%; T/C x 100 (Dose 6.3 mg/kg intraperitoneally, administration day 1 - 5): 148%; T/C x 100 (Dose 12.5 mg/kg intraperitoneally, administration day 1 - 5): 166%; T/C x 100 [1]: 176%

For `CN(C)CCNC(=O)c1c(O)c2ccccc2c2nc3ccncc3nc12` [Compound 1, N-β-dimethylaminoethyl 5-hydroxybenzo[f]pyrido[3,4-b]quinoxaline-6-carboxamide], which “T/C x 100” value (Dose 6.3 mg/kg intraperitoneally, administration day 1, 5, 30 days observation) is on record?
The value was 133%.

What about the “T/C x 100” value (Dose 12.5 mg/kg intraperitoneally, administration day 1, 5) of the same compound?
Its value is 137%.

What about the “T/C x 100” value (Dose 25.0 mg/kg intraperitoneally, administration day 1, 5) of the same compound?
The value was 275%.

Which results are given for `CN(C)CCNC(=O)c1c(O)c2ccccc2c2nc3ncccc3nc12` [Compound 5, N-β-dimethylaminoethyl 5-hydroxybenzo[f]pyrido[3,2-b]quinoxaline-6-carboxamide]?
T/C x 100 [1]: 130%; T/C x 100 (Dose 50.0 mg/kg intraperitoneally, administration day 1, 5): 135%; T/C x 100 (Dose 100 mg/kg intraperitoneally, administration day 1, 5): 195%; T/C x 100 (Dose 200 mg/kg intraperitoneally, administration day 1, 5): 200%

What does the source list for `O=C(NCCNCCO)c1c(O)c2ccccc2c2nc3ncccc3nc12` [Compound 7, N-2-(2-hydroxyethylamino)ethyl 5-hydroxybenzo[f]pyrido[3,2-b]quinoxaline-6-carboxamide]?
T/C x 100 [1]: 174%; T/C x 100 [2]: 227%

With `CN(C)CCNC(=O)c1c(O)c2ccccc2c2nc3ncncc3nc12` [Compound 8, N-β-dimethylaminoethyl 5-hydroxynaphtho[2,1-g]pteridine-6-carboxamide] as the compound, how does the “T/C x 100” value [1] read?
The value was 133%.

And the “T/C x 100” value [2]?
Its value is 153%.

What about the “T/C x 100” value (Dose 100 mg/kg intraperitoneally, administration day 1 - 5) of the same compound?
The value was 148%.

— EP0234931A1, “Azaanthracene compounds” (TAISHO PHARMACEUTICAL CO. LTD, priority 1986, dated 1987)
